For data set [1], the system named is VRC5 human colon adenocarcinomas. In words: Antitumor activity in mice bearing human colon xenograft VRC5, oral dosing. It is filed as in vivo, CD1 Nu/Nu mice. Conditions: VRC5 tumor, daily for 10 days; for Percent Inhibition: inhibition of tumor growth vs control; for Toxic/Total: mice which died / total animals in group. The text has this:
One of the tumor models used for showing the anti-neoplastic activity of the sulfonylureas of this invention was the human colon xenograft VRC5. J.A. Houghton and D.M. Taylor, British Journal of Cancer, 37:213-223 (1978). This tumor was obtained from St. Jude's Children's Research Hospital and has been widely used as a human tumor model.
(§1) First passage tumors were stored in liquid nitrogen, using standard techniques. The transplanted tumor was reestablished from the Tumor Bank every six months or as needed. The tumor was maintained by serial passage twice weekly in the host mice.
(§2) In the procedures utilized here, the tumor was removed from passage animals and minced into cubic fragments having 1 to 3 mm edges using sterile techniques. Tumor pieces were checked for sterility using both Antibiotic Medium 1 and Brain Heart Infusion (Difco, Detroit, Michigan). The xenograft tumor pieces were implanted into the recipient CD1 Nu/Nu mice subcutaneously in an axillary site by trochar. The allograft 6C3HED tumor pieces were implanted into the recipient C3H mice in an analogous fashion.
(§3) Drug therapy on the appropriate schedule was initiated seven days after tumor implantation for the mice bearing the xenograft tumors, one day after implantation for the mice bearing the 6C3HED lymphosarcoma. The compound being tested was mixed with 2.5% Emulphor EL620 from GAF Corporation (1:40 dilution in 0.9% saline). The total dosage volume for each administration was 0.5 ml. All animals were weighed at the beginning and end of administration of the subject compounds. Food and water were provided ad libitum.
(§4) Each control group and each dosage level of the treated groups consisted of 9 or 10 mice selected at random from the pool of implanted animals. The formulations were administered orally by gavage with the use of an 18-gauge needle. Compounds were dosed daily for 10 days for the studies using the human tumor xenografts and 8 days for the studies using the allograft.
(§5) The tumor was measured five days after treatment ended with two dimensional measurements (width and length) of the tumor taken using digital electronic calipers interfaced to a microcomputer. J.F. Worzalla, et al., Investigational New Drugs, 8:241-251 (1990). Tumor weights were calculated from these measurements using the following formula: Tumor weight (mg) =[…] [formula] At least one control group of an equal number of mice was treated with the same volume of 2.5% Emulphor only. The percent inhibition is determined by subtracting the ratio of the mean tumor size of the test group relative to the control group from one and multiplying the result by 100.
(§6) The results of several experiments in mice bearing the VRC5 human colon adenocarcinomas, and the 6C3HED lymphosarcoma when the Formula I compounds were administered orally are provided in Table I. In the table, Column 1 refers to the example number of the compound tested; Column 2 describes the particular human tumor xenograft or mouse allograft being studied; Column 3 gives the dosage level of the compound of Formula I in milligrams per kilogram of body weight; Column 4 describes the percent inhibition of tumor growth; and Column 5 tallies the number of mice which died during the course of the experiment relative to the total number of animals in the group.
(A xenograft is tissue or cells of one species grown in another, often human tumour cells in immunodeficient mice.)

For another data set, the system named is 6C3HED lymphosarcoma. In words: Antitumor activity in mice bearing allograft 6C3HED lymphosarcoma, oral dosing. The format is in vivo, C3H mice. As to conditions: 6C3HED tumor, daily for 8 days; for Percent Inhibition: inhibition of tumor growth vs control; for Toxic/Total: mice which died / total animals in group.
From the text: Another tumor model employed C3H mice bearing the widely used allograft 6C3HED lymphosarcoma, also known as the Gardner lymphosarcoma (GLS). The 6C3HED lymphosarcoma was obtained from the Division of Cancer Treatment, National Cancer Institute, Tumor Bank, maintained at E. G. and G. Mason Research (Worcester, Massachusetts).
as §1, §2, §3, §4, §5, §6

With “N-[[(3,4-dichlorophenyl)amino]carbonyl]-1-methyl-1H-indole-5-sulfonamide [Example 3]”, the “Percent Inhibition” value in data set [1] (20 mg/kg orally by gavage) turned out to be 81%; in data set [1] (40 mg/kg orally by gavage), 95%; in data set [1] (80 mg/kg orally by gavage), 100%. For the same molecule, the Toxic/Total was 1/9 in data set [1] (20 mg/kg orally), 1/10 in data set [1] (40 mg/kg orally) and 0/10 in data set [1] (80 mg/kg orally).
Consider `O=C(Nc1ccc(Cl)cc1)NS(=O)(=O)c1ccc2c(c1)CCN2` [Example 1, N-[[(4-chlorophenyl)amino]carbonyl]-2,3-dihydro-1H-indole-5-sulfonamide], for which the “Percent Inhibition” value in the data set on 6C3HED lymphosarcoma (280 mg/kg orally by gavage) was 44%. For the same molecule, the Toxic/Total in the data set on 6C3HED lymphosarcoma (280 mg/kg orally) is 0/9.
For the molecule `O=C(Nc1ccc(Cl)c(Cl)c1)NS(=O)(=O)c1ccc2c(c1)CCN2` [Example 2, N-[[(3,4-dichlorophenyl)amino]carbonyl]-2,3-dihydro-1H-indole-5-sulfonamide], the “Percent Inhibition” value is listed as 100% in the data set on 6C3HED lymphosarcoma (450 mg/kg orally by gavage), 100% in the data set on 6C3HED lymphosarcoma (900 mg/kg orally by gavage), 18% in data set [1] (20 mg/kg orally by gavage) and 56% in data set [1] (40 mg/kg orally by gavage). Further, the Toxic/Total is recorded as 0/10 in the data set with 6C3HED lymphosarcoma (450 mg/kg orally), 1/10 with 6C3HED lymphosarcoma (900 mg/kg orally), 0/9 in data set [1] (20 mg/kg orally) and 0/9 in data set [1] (40 mg/kg orally).

Source of the values: patent publication EP0614887B1, “Indole-sulfonamides as antitumor agents” (ELI LILLY AND COMPANY, priority 1993, dated 1994).
